Measurements taken from the NIST ThermoML archive (doi:10.1007/s10765-019-2484-6).

Assay: xn = mol fraction of the nth substance listed
Conditions: Gas, Loschmidt cell combined with holographic interferometry

CCC [propane] + O=C=O
Conditions | binary diffusion coefficient [m2/s]
293.24 K, 50 kPa, x1 = 0.5 | 1.89e-05
293.25 K, 100 kPa, x1 = 0.1665 | 8.54e-06
293.25 K, 200 kPa, x1 = 0.1665 | 4.14e-06
293.27 K, 100 kPa, x1 = 0.333 | 8.31e-06
293.27 K, 100 kPa, x1 = 0.833 | 8.29e-06
293.27 K, 500 kPa, x1 = 0.1665 | 1.59e-06
293.28 K, 200 kPa, x1 = 0.333 | 4.12e-06
293.28 K, 200 kPa, x1 = 0.833 | 4.06e-06
293.3 K, 500 kPa, x1 = 0.333 | 1.71e-06
293.31 K, 200 kPa, x1 = 0.4995 | 4.12e-06
293.32 K, 100 kPa, x1 = 0.4995 | 8.23e-06
293.32 K, 500 kPa, x1 = 0.833 | 1.51e-06
293.33 K, 200 kPa, x1 = 0.6665 | 4.06e-06
293.33 K, 500 kPa, x1 = 0.4995 | 1.49e-06
293.36 K, 100 kPa, x1 = 0.6665 | 8.25e-06
293.37 K, 200 kPa, x1 = 0.5 | 4.06e-06
293.39 K, 500 kPa, x1 = 0.5 | 1.54e-06
293.41 K, 500 kPa, x1 = 0.6665 | 1.52e-06
293.47 K, 100 kPa, x1 = 0.5 | 8.23e-06
313.21 K, 200 kPa, x1 = 0.333 | 4.88e-06
313.21 K, 500 kPa, x1 = 0.5 | 1.77e-06
313.22 K, 200 kPa, x1 = 0.5 | 4.77e-06
313.23 K, 100 kPa, x1 = 0.6665 | 9.67e-06
313.23 K, 200 kPa, x1 = 0.833 | 4.77e-06
313.25 K, 100 kPa, x1 = 0.833 | 9.53e-06
313.26 K, 100 kPa, x1 = 0.333 | 9.71e-06
313.26 K, 200 kPa, x1 = 0.6665 | 4.79e-06
313.27 K, 500 kPa, x1 = 0.333 | 1.94e-06
313.27 K, 500 kPa, x1 = 0.6665 | 1.85e-06
313.27 K, 500 kPa, x1 = 0.833 | 1.86e-06
313.28 K, 100 kPa, x1 = 0.1665 | 9.79e-06
313.28 K, 200 kPa, x1 = 0.1665 | 4.8e-06
313.29 K, 200 kPa, x1 = 0.4995 | 4.8e-06
313.31 K, 500 kPa, x1 = 0.1665 | 1.95e-06
313.32 K, 100 kPa, x1 = 0.4995 | 9.71e-06

C [methane] + CCC
Conditions | binary diffusion coefficient [m2/s]
293.09 K, 500 kPa, x2 = 0.659 | 2.12e-06
293.12 K, 500 kPa, x2 = 0.3331 | 2.19e-06
293.12 K, 500 kPa, x2 = 0.492 | 2.07e-06
293.13 K, 500 kPa, x2 = 0.833 | 1.97e-06
293.16 K, 500 kPa, x2 = 0.5 | 2.19e-06
293.18 K, 500 kPa, x2 = 0.159 | 2.36e-06
293.19 K, 50 kPa, x2 = 0.5 | 2.36e-06
293.21 K, 200 kPa, x2 = 0.5 | 5.78e-06
293.29 K, 100 kPa, x2 = 0.5 | 1.18e-05
293.31 K, 100 kPa, x2 = 0.4973 | 1.21e-05
293.31 K, 100 kPa, x2 = 0.6665 | 1.18e-05
293.31 K, 200 kPa, x2 = 0.6665 | 5.81e-06
293.32 K, 100 kPa, x2 = 0.159 | 1.24e-05
293.32 K, 100 kPa, x2 = 0.3335 | 1.18e-05
293.33 K, 100 kPa, x2 = 0.833 | 1.18e-05
293.33 K, 200 kPa, x2 = 0.159 | 6.16e-06
293.33 K, 200 kPa, x2 = 0.3335 | 5.7e-06
293.33 K, 200 kPa, x2 = 0.833 | 5.77e-06
293.34 K, 200 kPa, x2 = 0.498 | 5.81e-06
313.28 K, 500 kPa, x2 = 0.4995 | 2.71e-06
313.52 K, 500 kPa, x2 = 0.832 | 2.73e-06
313.54 K, 500 kPa, x2 = 0.1665 | 2.8e-06
313.55 K, 100 kPa, x2 = 0.8295 | 1.37e-05
313.55 K, 500 kPa, x2 = 0.332 | 2.79e-06
313.55 K, 500 kPa, x2 = 0.5 | 2.72e-06
313.56 K, 100 kPa, x2 = 0.3295 | 1.4e-05
313.56 K, 100 kPa, x2 = 0.4995 | 1.31e-05
313.57 K, 200 kPa, x2 = 0.4995 | 6.73e-06
313.57 K, 200 kPa, x2 = 0.6665 | 6.92e-06
313.58 K, 100 kPa, x2 = 0.159 | 1.52e-05
313.58 K, 200 kPa, x2 = 0.5 | 6.91e-06
313.59 K, 100 kPa, x2 = 0.5 | 1.38e-05
313.59 K, 200 kPa, x2 = 0.3295 | 6.98e-06
313.59 K, 500 kPa, x2 = 0.6665 | 2.76e-06
313.6 K, 100 kPa, x2 = 0.6665 | 1.4e-05
313.6 K, 200 kPa, x2 = 0.159 | 7.39e-06
313.61 K, 200 kPa, x2 = 0.8295 | 6.76e-06
